Assay results from publication PMC6943496, “Antiplasmodial Activity of Nitroaromatic Compounds: Correlation with Their Reduction Potential and Inhibitory Action on Plasmodium falciparum Glutathione Reductase” (Molecules, 2019).

Each compound was assayed against T1, P. falciparum glutathione reductase (PfGR) (Plasmodium falciparum, UniProt Q94655) (assay: NADPH oxidation at […] nm, Cleland plot ([…]/kcat vs [I])).
T1 construct: gene GR; 2 x 55 kD homodimer with FAD
Assay type: biochemical

T1 sequence (Q94655 2-500): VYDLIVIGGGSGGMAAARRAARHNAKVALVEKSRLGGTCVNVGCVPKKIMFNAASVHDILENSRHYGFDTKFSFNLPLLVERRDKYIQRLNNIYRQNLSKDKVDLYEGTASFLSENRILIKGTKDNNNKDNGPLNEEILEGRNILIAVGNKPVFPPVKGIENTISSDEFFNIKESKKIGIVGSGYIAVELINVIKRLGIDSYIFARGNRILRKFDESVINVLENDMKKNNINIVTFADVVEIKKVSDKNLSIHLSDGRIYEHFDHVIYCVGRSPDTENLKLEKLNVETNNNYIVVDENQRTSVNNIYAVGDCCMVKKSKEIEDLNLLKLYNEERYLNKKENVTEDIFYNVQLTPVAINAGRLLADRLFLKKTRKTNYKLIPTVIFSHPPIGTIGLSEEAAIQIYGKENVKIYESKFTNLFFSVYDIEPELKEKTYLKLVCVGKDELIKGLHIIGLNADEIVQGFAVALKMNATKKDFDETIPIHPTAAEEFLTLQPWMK

Q: `O=C(O)c1ccc([N+](=O)[O-])cc1` [compound 2, 4-Nitrobenzoic acid] was tested. Which Ki did it give?
A: 1200 ± 180 µM

Q: For `CC(=O)c1ccc([N+](=O)[O-])cc1` [compound 4, 4-Nitroacetophenone], which Ki is on record?
A: 70 ± 11 µM

Q: `O=Cc1ccc([N+](=O)[O-])cc1` [compound 7, 4-Nitrobenzaldehyde] was tested. Which Ki did it give?
A: 25 ± 4 µM

Q: For `O=C1CN(/N=C/c2ccc([N+](=O)[O-])o2)C(=O)N1` [compound 10, Nitrofurantoin], which Ki is on record?
A: 9 ± 1 µM

Q: With `O=[N+]([O-])c1ccc(/C=N/O)o1` [compound 11, Nifuroxime] as the compound, how does the Ki read?
A: 32 ± 5 µM

What follows are compounds tested against T1, P. falciparum glutathione reductase (PfGR) (assay: GSH-mediated DTNB reduction at […] nm, Cleland plot).
Assay type: biochemical

Q: With `NC(=O)c1cc(N2CC2)c([N+](=O)[O-])cc1[N+](=O)[O-]` [compound 3, 5-(Aziridin-1-yl)-2,4-dinitrobenzamide] as the compound, how does the Ki read?
A: 350 ± 40 µM
